# In the Kinase Knowledgebase extract (Sharma et al. 2016):
# Biological target: MAPK14 (UniProt Q16539)
# Assay: Inhibition of MAPK14 Kinase Activity
# Sequence of MAPK14 (Q16539 whole entry, looked up): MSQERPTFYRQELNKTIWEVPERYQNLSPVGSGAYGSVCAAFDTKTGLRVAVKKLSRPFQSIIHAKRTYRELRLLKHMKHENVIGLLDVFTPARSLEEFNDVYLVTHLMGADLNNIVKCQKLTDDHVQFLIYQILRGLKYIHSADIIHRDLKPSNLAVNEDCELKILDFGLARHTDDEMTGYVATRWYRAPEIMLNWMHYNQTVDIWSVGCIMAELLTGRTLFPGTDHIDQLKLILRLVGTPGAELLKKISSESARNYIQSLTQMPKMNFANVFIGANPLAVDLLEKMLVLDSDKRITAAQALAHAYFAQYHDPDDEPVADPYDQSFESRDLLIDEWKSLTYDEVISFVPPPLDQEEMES
row,SMILES,IC50 [µM]
1,Cn1nc(C(C)(C)C)cc1NC(=O)Nc1cc(F)cc(OC2CCN(C(=O)c3cccc(CN4CCOCC4)c3)CC2)c1,< 5
2,COc1ccc(C(=O)N2CCC(Oc3ccc(NC(=O)Nc4cc(C(C)(C)C)nn4C)cc3)CC2)c(OC)n1,< 5
3,Cc1ccc(-n2nc(C(C)(C)C)cc2NC(=O)Nc2ccc(N3CCN(C(=O)c4c(Cl)cccc4Cl)CC3)cc2)cc1,< 5
4,Cc1ccc(-n2nc(C(C)(C)C)cc2NC(=O)Nc2ccc(CN3CCN(C(=O)c4c(F)cccc4F)CC3)cc2)cc1,< 5
5,Cn1nc(C(C)(C)C)cc1NC(=O)Nc1cc(F)cc(OC2CCN(C(=O)c3cccc4[nH]ccc34)CC2)c1,< 5
6,CCn1nc(C(C)(C)C)cc1NC(=O)Nc1ccc(CN2CCN(C(=O)c3c(F)cccc3F)CC2)cc1F,< 5
7,CC(C)(C)c1cc(NC(=O)Nc2ccc(OC3CCN(C(=O)c4c(Cl)cccc4Cl)CC3)cc2)[nH]n1,< 5
8,Cn1nc(C(C)(C)C)cc1NC(=O)Nc1ccc(CN2CCN(C(=O)c3ccc(F)cc3Cl)CC2)cc1,< 5
9,Cn1nc(C(C)(C)C)cc1NC(=O)Nc1ccc(OC2CCN(C(=O)c3ccsc3)CC2)cc1,< 5
10,Cn1nc(C(C)(C)C)cc1NC(=O)Nc1cc(F)cc(OC2CCN(C(=O)c3ccccc3Cl)CC2)c1,< 5
11,Cn1nc(C(C)(C)C)cc1NC(=O)Nc1ccc(OC2CCN(C(=O)c3c[nH]cn3)CC2)cc1,< 5
12,Cn1nc(C(C)(C)C)cc1NC(=O)Nc1cccc(C2CCN(C(=O)c3c(Cl)cccc3Cl)CC2)c1,< 5
13,COc1cccc(F)c1C(=O)N1CCC(Oc2cccc(NC(=O)Nc3cc(C(C)(C)C)nn3C)c2)CC1,< 5
14,Cn1nc(C(C)(C)C)cc1NC(=O)Nc1cc(F)cc(OC2CCN(C(=O)C3CC3)CC2)c1,< 5
15,Cn1nc(C(C)(C)C)cc1NC(=O)Nc1ccc(CN2CCN(C(=O)c3ccccc3)CC2)cc1,< 5
16,Cn1nc(C(C)(C)C)cc1NC(=O)Nc1cccc(OC2CCN(C(=O)c3c(F)cccc3F)CC2)c1,< 5
17,Cc1ccc(-n2nc(C(C)(C)C)cc2NC(=O)Nc2ccc(N3CCN(C(=O)C(C)C)CC3)cc2)cc1,< 5
18,Cc1ccc(-n2nc(C(C)(C)C)cc2NC(=O)Nc2cc(F)cc(OC3CCN(C(=O)c4ccccc4F)CC3)c2)cc1,< 5
19,Cn1nc(C(C)(C)C)cc1NC(=O)Nc1cc(F)cc(OC2CCN(C(=O)c3ccccc3F)CC2)c1,< 5
20,Cc1ccc(-n2nc(C(C)(C)C)cc2NC(=O)Nc2ccc(N3CCN(S(=O)(=O)C4CC4)CC3)cc2)cc1,< 5
21,Cn1nc(C(C)(C)C)cc1NC(=O)Nc1ccc(OC2CCN(C(=O)c3cc[nH]c3)CC2)cc1,< 5

row,SMILES,IC50 [µM]
1,Cn1nc(C(C)(C)C)cc1NC(=O)Nc1cc(F)cc(OC2CCN(C(=O)C3(C)CC3)CC2)c1,< 5
2,Cc1ccc(-n2nc(C(C)(C)C)cc2NC(=O)Nc2ccc(OC3CCN(C(=O)c4c(Cl)cccc4Cl)CC3)c3ccccc23)cc1,< 5
3,Cc1ccc(-n2nc(C(C)(C)C)cc2NC(=O)Nc2ccc(CN3CCN(C(=O)C4CC4)CC3)cc2)cc1,< 5
4,Cc1ccsc1C(=O)N1CCC(Oc2cc(F)cc(NC(=O)Nc3cc(C(C)(C)C)nn3C)c2)CC1,< 5
5,Cc1ccc(-n2nc(C(C)(C)C)cc2NC(=O)Nc2ccc(N3CCN(C(=O)CC(C)(C)C)CC3)cc2)cc1,< 5
6,Cn1nc(C(C)(C)C)cc1NC(=O)Nc1cccc(OC2CCN(C(=O)c3ccc(F)cc3F)CC2)c1,< 5
7,Cn1nc(C(C)(C)C)cc1NC(=O)Nc1cc(F)cc(OC2CCN(C(=O)c3cc[nH]c3)CC2)c1,< 5
8,Cc1ccc(-n2nc(C(C)(C)C)cc2NC(=O)Nc2ccc(N3CCN(C(=O)C4CCC4)CC3)cc2)cc1,< 5
9,Cn1nc(C(C)(C)C)cc1NC(=O)Nc1ccc(CN2CCN(C(=O)c3ccc(F)cc3F)CC2)c(F)c1,< 5
10,Cn1nc(C(C)(C)C)cc1NC(=O)Nc1cc(F)cc(OC2CCN(C(=O)c3c(Cl)cccc3Cl)CC2)c1,< 5
11,Cn1nc(C(C)(C)C)cc1NC(=O)Nc1ccc(OC2CCN(C(=O)c3sccc3Cl)CC2)cc1,< 5
12,Cc1ccc(-n2nc(C(C)(C)C)cc2NC(=O)Nc2ccc(N3CCN(C(=O)C(C)(C)C)CC3)cc2)cc1,0.091
13,Cc1ccc(-n2nc(C(C)(C)C)cc2NC(=O)Nc2ccc(CN3CCN(C(=O)c4c(Cl)cccc4Cl)CC3)cc2)cc1,< 5
14,Cn1nc(C(C)(C)C)cc1NC(=O)Nc1cc(F)cc(OC2CCN(C(=O)c3cccc4cc[nH]c34)CC2)c1,< 5
15,CC(=O)N1CCN(Cc2ccc(NC(=O)Nc3cc(C(C)(C)C)nn3-c3ccc(C)cc3)cc2)CC1,< 5
16,Cn1nc(C(C)(C)C)cc1NC(=O)Nc1ccc(OC2CCN(C(=O)c3c(Cl)cccc3Cl)CC2)cc1,< 5
17,Cn1nc(C(C)(C)C)cc1NC(=O)Nc1ccc(OC2CCN(C(=O)c3ccc(Cl)s3)CC2)cc1,< 5
18,Cn1nc(C(C)(C)C)cc1NC(=O)Nc1ccc(OC2CCN(C(=O)C(C)(C)C)CC2)cc1,< 5
19,CC(C)n1nc(C(C)(C)C)cc1NC(=O)Nc1ccc(CN2CCN(C(=O)c3c(Cl)cccc3Cl)CC2)cc1,< 5
20,Cn1nc(C(C)(C)C)cc1NC(=O)Nc1ccc(OC2CCN(C(=O)Oc3ccccc3C(F)(F)F)CC2)cc1,< 5
21,Cn1nc(C(C)(C)C)cc1NC(=O)Nc1cc(OC2CCN(C(=O)c3c(F)cccc3F)CC2)cc(C(F)(F)F)c1,< 5

row,SMILES,IC50 [µM]
1,Cc1ccc(-n2nc(C(C)(C)C)cc2NC(=O)Nc2ccc(N3CCN(S(=O)(=O)C(C)C)CC3)cc2)cc1,< 5
2,Cn1nc(C(C)(C)C)cc1NC(=O)Nc1cc(F)cc(OC2CCN(C(=O)C(Cl)(Cl)Cl)CC2)c1,< 5
3,Cn1nc(C(C)(C)C)cc1NC(=O)Nc1cccc(OC2CCN(C(=O)c3c(Cl)cccc3Cl)CC2)c1,< 5
4,Cn1nc(C(C)(C)C)cc1NC(=O)Nc1cc(F)cc(OC2CCN(C(=O)c3c[nH]c4ccccc34)CC2)c1,< 5
5,CC(C)(C)c1cc(NC(=O)Nc2ccc(OC3CCN(C(=O)c4ccccc4Cl)CC3)cc2)[nH]n1,< 5
6,Cc1ccc(-n2nc(C(C)(C)C)cc2NC(=O)NC2CCN(C(=O)c3ccc(S(C)(=O)=O)cc3)CC2)cc1,< 5
7,Cn1nc(C(C)(C)C)cc1NC(=O)Nc1cc(F)cc(OC2CCN(C(=O)c3sccc3Cl)CC2)c1,< 5
8,Cc1ccc(-n2nc(C(C)(C)C)cc2NC(=O)Nc2ccc(OC3CCN(C(=O)c4c(Cl)cccc4Cl)CC3)cc2)cc1,< 5
9,Cn1nc(C(C)(C)C)cc1NC(=O)Nc1cccc(OC2CCN(C(=O)c3c(F)cccc3Cl)CC2)c1,< 5
10,Cn1nc(C(C)(C)C)cc1NC(=O)Nc1ccc(OC2CCN(C(=O)c3ccncc3)CC2)cc1,< 5
11,Cc1cc(C(=O)N2CCC(Oc3cc(F)cc(NC(=O)Nc4cc(C(C)(C)C)nn4C)c3)CC2)c(C)[nH]1,< 5
12,Cn1nc(C(C)(C)C)cc1NC(=O)Nc1ccc(OC2CCN(C(=O)c3cn[nH]c3)CC2)cc1,< 5
13,CC(C)n1nc(C(C)(C)C)cc1NC(=O)Nc1ccc(CN2CCN(C(=O)c3ccc(F)cc3F)CC2)c(F)c1,< 5
14,Cn1nc(C(C)(C)C)cc1NC(=O)Nc1ccc(CN2CCN(C(=O)c3c(F)cccc3Cl)CC2)cc1,< 5
15,COc1ccccc1C(=O)N1CCN(Cc2ccc(NC(=O)Nc3cc(C(C)(C)C)nn3C)cc2)CC1,< 5
16,Cn1nc(C(C)(C)C)cc1NC(=O)Nc1ccc(CN2CCN(C(=O)c3ccccc3Cl)CC2)cc1,< 5
17,Cn1nc(C(C)(C)C)cc1NC(=O)Nc1cccc(OC2CCN(C(=O)c3ccccc3)CC2)c1,< 5
18,Cc1ccc(-n2nc(C(C)(C)C)cc2NC(=O)Nc2ccc(N3CCN(C(=O)CC4CCCC4)CC3)cc2)cc1,< 5
19,CCn1nc(C(C)(C)C)cc1NC(=O)Nc1ccc(CN2CCN(C(=O)c3c(F)cccc3F)CC2)cc1,< 5
20,Cn1nc(C(C)(C)C)cc1NC(=O)Nc1cccc(OC2CCN(C(=O)OCc3ccccc3)CC2)c1,< 5
21,Cn1nc(C(C)(C)C)cc1NC(=O)Nc1cccc(OC2CCN(C(=O)c3cc[nH]c3)CC2)c1,< 5

row,SMILES,IC50 [µM]
1,CCCC(C)(C)C(=O)N1CCN(c2ccc(NC(=O)Nc3cc(C(C)(C)C)nn3-c3ccc(C)cc3)cc2)CC1,< 5
2,Cn1nc(C(C)(C)C)cc1NC(=O)Nc1ccc(CN2CCN(C(=O)c3ccc(Cl)cc3Cl)CC2)cc1,< 5
3,Cn1nc(C(C)(C)C)cc1NC(=O)Nc1cc(F)cc(OC2CCN(C(=O)C3(C)CC3(Cl)Cl)CC2)c1 (stereo not drawn),< 5
4,Cc1ccsc1C(=O)N1CCC(Oc2cccc(NC(=O)Nc3cc(C(C)(C)C)nn3C)c2)CC1,< 5
5,CC(C)n1nc(C(C)(C)C)cc1NC(=O)Nc1ccc(CN2CCN(C(=O)c3c(F)cccc3F)CC2)cc1,< 5
6,Cn1nc(C(C)(C)C)cc1NC(=O)Nc1cc(F)cc(OC2CCN(C(N)=O)CC2)c1,< 5
7,Cn1nc(C(C)(C)C)cc1NC(=O)Nc1cc(F)cc(OC2CCN(C(=O)c3c(Cl)cncc3Cl)CC2)c1,< 5
8,Cn1nc(C(C)(C)C)cc1NC(=O)Nc1cccc(OC2CCN(C(=O)c3c(Cl)cncc3Cl)CC2)c1,< 5
9,Cn1nc(C(C)(C)C)cc1NC(=O)Nc1cccc(OC2CCN(C(=O)c3ccccc3F)CC2)c1,< 5
10,Cc1ccc(-n2nc(C(C)(C)C)cc2NC(=O)Nc2cc(F)cc(OC3CCN(C(=O)C4CC4)CC3)c2)cc1,< 5
11,Cn1nc(C(C)(C)C)cc1NC(=O)Nc1ccc(OC2CCN(C(=O)c3cccnc3Cl)CC2)cc1,< 5
12,Cn1nc(C(C)(C)C)cc1NC(=O)Nc1ccc(CN2CCN(C(=O)c3cc(Cl)sc3Cl)CC2)cc1,< 5
13,Cc1ccc(-n2nc(C(C)(C)C)cc2NC(=O)Nc2ccc(N3CCN(C(=O)c4c(F)cccc4F)CC3)cc2)cc1,< 5
14,Cn1nc(C(C)(C)C)cc1NC(=O)Nc1ccc(N2CCN(C(=O)c3c(F)cccc3F)CC2)cc1,< 5
15,Cn1nc(C(C)(C)C)cc1NC(=O)Nc1ccc(C(=O)N2CCN(Cc3ccncc3)CC2)cc1,< 5
16,CCn1nc(C(C)(C)C)cc1NC(=O)Nc1ccc(CN2CCN(C(=O)c3c(Cl)cccc3Cl)CC2)cc1F,< 5
17,Cn1nc(C(C)(C)C)cc1NC(=O)Nc1cc(F)cc(OC2CCN(C(=O)c3cc4ccccc4[nH]3)CC2)c1,< 5
18,COc1ccc(C(=O)N2CCC(Oc3cccc(NC(=O)Nc4cc(C(C)(C)C)nn4C)c3)CC2)c(OC)n1,< 5
19,Cc1ccc(-n2nc(C(C)(C)C)cc2NC(=O)Nc2ccc(OCC3CCN(C(=O)c4c(Cl)cccc4Cl)CC3)c3ccccc23)cc1,< 5
20,Cn1nc(C(C)(C)C)cc1NC(=O)Nc1ccc(CN2CCN(C(=O)c3ccc(C(F)(F)F)cc3)CC2)cc1,< 5
